The test system of data set [1] is Aeromonas hydrophila. Put plainly: In-vitro antibacterial activity, MIC by broth dilution. The note with it: Aeromonas hydrophila; broth dilution, 24 h; read-out: MIC values Aeromonas hydrophila. Type of data set: cell-based. How it is done:
(§1) All test compounds were dissolved in dimethyl sulfoxide (DMSO, Sigma, USA) and then diluted in Dulbecco’s modified Eagle’s medium (DMEM, Gibco, USA) at desired concentrations for cell proliferation analyses or diluted in nutrient broth medium for antimicrobial susceptibility testing respectively. The final concentration of DMSO in the DMEM culture medium was under 0.1% (v:v).
(§2) The preliminary antibacterial activities were obtained for selected compounds against various bacteria, namely: Staphyloccocus aureus ATCC25923 (Gram-positive bacteria), Clostridium perfringen CVCC52,8604 (anaerobes bacteria), Salmonella pullorum (Gram-negative bacteria), Escherichia coli ATCC25922 (Gram negative bacteria) and Aeromonas hydrophila (Gram-negative bacteria) were used in the study. Each strain was cultured in appropriate broth medium. Clostridium perfringen was incubated in an anaerobic chamber. The minimum inhibitory concentration (MIC) for each test compound was estimated using the broth dilution method. The MIC’s was determined for each strain/compound pairs that presented antimicrobial activity. The method was modified from Mohapatra›s methods ([14], [15]). Cell suspensions were prepared in 2 mL of liquid medium with concentrations of various tests of compounds in 15 mL culture tubes by inoculation with 100 μL of 10^6 cfu/mL from each stock. The cultures were incubated at 28 °C or 37 °C for 24 h. Tubes showing no visible turbidity represented the MIC, and subsequently, were inoculated on the right side of the 9cm sterile nutrient agar plates without various test compounds and incubated for 24 h (Clostridium perfringen was incubated in an anaerobic chamber.). The least concentration, at which no growth was observed, represented the minimum bactericidal concentration (MBC) ([16]).

The test system of data set [2] is Escherichia coli ATCC25922. Described as above. The data set is classed as cell-based. The note with it: Escherichia coli, ATCC25922; broth dilution, 24 h; read-out: MIC values Escherichia coli ATCC25922. How it is done:
as §1, §2

The subject of a further data set is Salmonella pullorum. Described as above. Type of data set: cell-based. To be noted: Salmonella enterica, PULLORUM, 24 h. How it is done:
as §1, §2

Data set [3] relates to Staphyloccocus aureus ATCC25923. The data set is described as above. Type of data set: cell-based. To be noted: broth dilution, 24 h; read-out: MIC values Staphyloccocus aureus ATCC25923. The procedure: as §1, §2
The test system of data set [4] is Clostridium perfringen CVCC52,8604. Put plainly: In-vitro antibacterial activity, MIC by broth dilution (anaerobic chamber). Type of data set: cell-based. To be noted: Clostridium, 24 h. How it is done:
as §1, §2

The subject of data set [5] is HepG2 cells. Put plainly: In-vitro cytotoxicity, MTT cell proliferation assay. The data set is classed as cell-based, human. To be noted: 24 h incubation, concentration reducing viable cells by 50%. The procedure: as §1
(§3) HepG2 and normal human Chang liver cells were obtained from the Institute of Biochemistry and Cell Biology, Shanghai Institutes for Biological Sciences, Chinese Academy of Sciences (Shanghai, China). HepG2 and normal human Chang liver cells were cultured at 37˚Cwith 5% CO2 in DMEM supplemented with 2% L-glutamine, 10% fetal bovine serum (Gibco, USA), 100 U/mL penicillin and 100 […] (Gibco, USA).
(§4) The methodology for evaluating the cytotoxicity inhibitory activity of various test compounds towards cell proliferation has been described previously ([11], [17]). Cell proliferation inhibitory analyses were carried out using the 3-(4,5-dimethylthiazole-2-yl)-2,5-diphenyl tetrazolium bromide (MTT, Sigma, USA) assay. Briefly, cancers HepG2 and normal human Chang liver cells were harvested and resuspended in fresh growth medium. A 100 μL cell suspension (5 × 10^4 cells/mL) was aliquoted into each well of a 96-well culture plate. After 12 h incubation, the medium was replaced with fresh medium containing various concentrations of test compounds. The cells were then incubated for another 24 h. At the end of exposure, 10 μL of MTT solution (5 mg/mL) was added, and the cells were incubated for 4 h at 37 °C. The cells were treated with 100 μL DMSO, and absorbance was recorded at 570 nm using a microplate ELISA reader (ELX800, Bio-Tek, USA). All experiments were performed at least thrice, and data were presented as the mean of sixplicate wells ± standard deviation (SD). Cell inhibition was calculated as follows:
(§5) (OD of control group − OD of experimental group) / (OD of control group − OD of blank group) ×100%. The IC50 value for a compound was calculated using SPSS.

Data set [6] has as its system normal human Chang liver cells. Described as above. Type of data set: cell-based. To be noted: 24 h incubation, concentration reducing viable cells by 50%. How it is done: as §1, §3, §4, §5
The test system of data set [7] is Gram-positive and Gram-negative bacteria. In words: Antibacterial activity class based on the MIC results. The data set is classed as cell-based. How it is done: as §2
In this study, activity of quinoxaline-1, 4-dioxides and their deoxygenations was tested against selected Gram-negative bacteria (Escherichia coli, Salmonella pullorum and Aeromonas hydrophila), Gram-positive bacteria (Staphyloccocus aureus and Clostridium perfringen). The in-vitro antibacterial activity was based on the MIC results: Strong antibacterial activity, if MIC is less than 50 μg/mL; Moderate, if MIC is in between 50 and 250 μg/mL; No activity, if MIC is more than 500 μg/mL.

The test system of data set [8] is HepG2 cells. Put plainly: Identification of metabolic pathways in HepG2 cells by LC-MS/MS. The data set is classed as in vitro ADME, human. To be noted: HepG2 cells incubated for 24 h. How it is done:
For recognition of the metabolic characteristics of quinocetone (3a), deoxyquinocetone (5a), olaquindox, 3-methyl-2-(3-fura-2-propenoyl)-quinoxaline -1,4-dioxide 6, and 3-methyl -2-quinoxaline-2-carboxylate-1,4-dioxide 8, HepG2 cells were seeded at 6× 10^4 cells/ml density in 24-well plates. After 24 h incubation, the medium was replaced with fresh medium containing various concentrations ([…]) of test compounds. After 24 h incubation, the medium was collected and extracted with ethyl acetate then centrifuged at […] for 20min at 4 °C. The organic supernatant was evaporated under nitrogen atmosphere at 40 °C, the residue was dissolved in 200μL acetonitrile. The aliquot was filtered by a 0.22 μM membrane then analyzed. The blank is conducted in the absence of pharmaceuticals.
All experiments were performed with a Waters Alliance 2695 LC system (Waters) and a quattro micro API quadruple mass spectrometer (Micromass, Manchester, UK) equipped with an electro-spray ion source (ESI).
LC analysis was carried out on an XTerra C18 HPLC column (2.1 mm×100 mm, 3.5 μM) (Waters, Milford, MA, USA) equipped with a guard column (XTerra C18 2.1 mm×100 mm, 3.5μM) (Waters, Milford, MA, USA). […]
The MS instrument was used for analysis operating in a positive ion mode. […] The spectra was recorded in the range m/z 50~500 for full scan MS analysis. […]

Data set [9] has as its system HepG2, Vero, L-02 and Chang liver cell lines. Also on record: method as in PMID 19061932, PMID 22840332. To be noted: in-vitro, ref [7],[11]; cited from earlier work.
The test system of data set [10] is Aeromonas hydrophila. Put plainly: Minimum bactericidal concentration (MBC), subculture on nutrient agar. Type of data set: cell-based. To be noted: least concentration with no growth on agar plates, 24 h. How it is done:
as §2, with “The least concentration, at which no growth was observed, represented the minimum bactericidal concentration (MBC) ([16]).” left out

Where [11] appears, read: Homo sapiens, Chang liver, 24 h.

Values after ≈ are worked out from the molar mass of the structure shown.

On to `Cc1c(C(=O)C=Cc2ccccc2)[n+]([O-])c2ccccc2[n+]1[O-]` [Compound 3a, 3-Methyl-2-(3-phenyl-2-propenoyl)-quinoxaline-1,4-dioxide, reference compound], for which the MIC amounted to 49 µg/mL (≈ 160 µM) in the data set with Aeromonas hydrophila [1]; 97.9 µg/mL (≈ 320 µM) in data set [2]; 49 µg/mL (≈ 160 µM) in the data set with Salmonella pullorum; 24.5 µg/mL (≈ 79.9 µM) in [3]; 196 µg/mL (≈ 639 µM) in data set [4]. In addition, the IC50 in the data set with HepG2 cells [5] is 49.3 ± 1.94 µM; in the data set on HepG2 cells [5] (Homo sapiens, HepG2, 24 h) it was 49 µM; in data set [6], 63.3 ± 5.55 µM; in [6] (setting [11]) it was 63 µM. In [7], the “antibacterial activity against Gram-positive and Gram-negative bacteria” value was “strong or moderate activity”. The “categories of metabolites in HepG2 cells” value with HepG2 cells [8] was “reduction, hydroxylation, and a combination of reduction and hydroxylation”. The growth inhibitory effects result in [9] is “significant growth inhibitory effects”.

For `Cc1c(C(=O)NCCO)[n+]([O-])c2ccccc2[n+]1[O-]` [olaquindox, n-(2-hydroxyethyl)-3-methyl-2-quinoxalinecarboxamide 1,4-dioxide, reference compound], the minimal inhibitory concentration (MIC) with Aeromonas hydrophila [1] amounted to 21 µg/mL (≈ 79.9 µM); in data set [2], 21 µg/mL (≈ 79.9 µM); against Salmonella pullorum, 84.2 µg/mL (≈ 320 µM); in [3], 42.1 µg/mL (≈ 160 µM); in [4], 67.3 µg/mL (≈ 256 µM). Further, the IC50 in the data set on HepG2 cells [5] (Homo sapiens, HepG2, 24 h) amounted to 893 ± 14.7 µM; in data set [6] (setting [11]), 815 ± 31.2 µM. Also, the minimum bactericidal concentration (MBC) against Aeromonas hydrophila [10] was found to be 84.2 µg/mL (≈ 320 µM). Besides, the “antibacterial activity against Gram-positive and Gram-negative bacteria” value in [7] was “strong or moderate activity”. For the same molecule, in data set [9], the growth inhibitory effects result is given as “much lower than quinocetone”.

The values are drawn from paper PMC5603865, “Synthesis, In-Vitro Activity and Metabolic Properties of Quinocetone and Structurally Similar Compounds” (Iranian Journal of Pharmaceutical Research : IJPR, 2017).
